# From ChEMBL document CHEMBL5104161, “Novel analgesic/anti-inflammatory agents: 1,5-Diarylpyrrole nitrooxyethyl sulfides and related compounds as Cyclooxygenase-2 inhibitors containing a nitric oxide donor moiety endowed with vasorelaxant properties” (Eur J Med Chem, 2022)
# Legend:
# Rattus norvegicus [1] = test: Anti-hyperalgesic activity in carrageenan-induced hyperalgesia male Sprague-Dawley rat model assessed as paw withdrawal threshold at 20 mg/kg, po measured 60 mins after compound administration by paw pressure test; assay type: functional; details: 1 h
# Rattus norvegicus [2] = test: Anti-hyperalgesic activity in carrageenan-induced hyperalgesia male Sprague-Dawley rat model assessed as paw withdrawal threshold at 20 mg/kg, po measured 15 mins after compound administration by paw pressure test; assay type: functional; details: 0.25 h
# [3] = molecular target: T1, Prostaglandin G/H synthase 2 (Mus musculus, UniProt Q05769); test: Inhibition of COX2 in LPS-stimulated mouse J774 cells assessed as inhibition of PGE2 production and measured after 24 hrs by enzyme immuno-assay (EIA); assay type: cell-based
# T1 sequence (Q05769 whole entry): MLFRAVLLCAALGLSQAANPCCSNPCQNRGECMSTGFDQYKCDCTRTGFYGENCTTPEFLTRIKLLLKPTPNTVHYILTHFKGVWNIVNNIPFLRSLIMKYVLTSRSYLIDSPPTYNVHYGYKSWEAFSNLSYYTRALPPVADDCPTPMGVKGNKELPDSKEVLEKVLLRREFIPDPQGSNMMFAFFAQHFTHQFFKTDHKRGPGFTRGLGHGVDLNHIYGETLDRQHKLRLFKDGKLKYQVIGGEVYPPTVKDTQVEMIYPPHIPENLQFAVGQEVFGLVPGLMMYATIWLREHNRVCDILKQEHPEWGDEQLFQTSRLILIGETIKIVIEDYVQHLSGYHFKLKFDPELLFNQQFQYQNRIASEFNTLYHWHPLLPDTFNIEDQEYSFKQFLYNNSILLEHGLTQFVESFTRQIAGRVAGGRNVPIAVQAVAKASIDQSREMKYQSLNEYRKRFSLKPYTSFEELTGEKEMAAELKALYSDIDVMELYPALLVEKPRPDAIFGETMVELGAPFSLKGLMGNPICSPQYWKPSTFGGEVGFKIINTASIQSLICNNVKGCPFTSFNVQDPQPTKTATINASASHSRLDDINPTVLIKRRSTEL
# Rattus norvegicus [4] = test: Anti-hyperalgesic activity in carrageenan-induced hyperalgesia male Sprague-Dawley rat model assessed as paw edema volume at 20 mg/kg, po measured 30 mins after compound administration by plethysmometer analysis; assay type: functional; details: 0.5 h
# J774 = test: Ratio IC50 for inhibition of COX1 in mouse J774 cells over inhibition of COX2 in mouse J774 cells; assay type: cell-based
# Rattus norvegicus [5] = test: Anti-hyperalgesic activity in carrageenan-induced hyperalgesia male Sprague-Dawley rat model assessed as paw withdrawal threshold at 20 mg/kg, po measured 30 mins after compound administration by paw pressure test; assay type: functional; details: 0.5 h
# Mus musculus [6] = test: Analgesic activity against acetic acid-induced male CD1 albino mouse model assessed as number of writhes at 30 mg/kg, po measured after 30 mins by abdominal constriction test; assay type: functional; details: 0.5 h
# [7] = molecular target: T2, Prostaglandin G/H synthase 1 (Mus musculus, UniProt P22437); test: Inhibition of COX1 in mouse J774 cells using arachidonic acid as substrate preincubated for 15 mins followed substrate addition and assessed as inhibition of PGE2 production after 30 mins by enzyme immuno-assay (EIA); assay type: cell-based
# T2 sequence (P22437 whole entry): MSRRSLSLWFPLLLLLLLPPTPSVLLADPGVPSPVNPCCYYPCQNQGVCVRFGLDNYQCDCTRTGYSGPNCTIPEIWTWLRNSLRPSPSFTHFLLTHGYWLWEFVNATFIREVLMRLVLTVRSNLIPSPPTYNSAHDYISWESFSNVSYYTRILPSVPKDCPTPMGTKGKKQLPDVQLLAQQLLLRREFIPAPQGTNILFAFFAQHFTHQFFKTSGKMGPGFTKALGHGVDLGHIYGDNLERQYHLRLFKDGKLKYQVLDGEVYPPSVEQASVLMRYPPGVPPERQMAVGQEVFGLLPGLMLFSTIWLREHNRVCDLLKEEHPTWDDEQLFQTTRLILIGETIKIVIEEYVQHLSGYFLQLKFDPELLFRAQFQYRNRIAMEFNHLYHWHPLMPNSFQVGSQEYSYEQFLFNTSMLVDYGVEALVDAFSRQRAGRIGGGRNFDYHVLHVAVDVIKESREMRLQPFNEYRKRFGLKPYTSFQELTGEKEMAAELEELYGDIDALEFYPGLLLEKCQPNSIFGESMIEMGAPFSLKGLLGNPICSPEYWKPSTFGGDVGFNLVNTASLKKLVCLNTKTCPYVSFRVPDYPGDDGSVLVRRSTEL
# Mus musculus [8] = test: Analgesic activity against acetic acid-induced male CD1 albino mouse model assessed as number of writhes at 10 mg/kg, po measured after 30 mins by abdominal constriction test; assay type: functional; details: 0.5 h
# Rattus norvegicus [9] = test: Anti-hyperalgesic activity in carrageenan-induced hyperalgesia male Sprague-Dawley rat model assessed as paw withdrawal threshold at 20 mg/kg, po measured 45 mins after compound administration by paw pressure test; assay type: functional; details: 0.75 h
# Mus musculus [10] = test: Analgesic activity against acetic acid-induced male CD1 albino mouse model assessed as number of writhes at 20 mg/kg, po measured after 30 mins by abdominal constriction test; assay type: functional; details: 0.5 h
# [11] = Half-life in mouse liver microsomes at 1 uM preincubated for 10 mins and measured up to 60 mins by LC-MS/MS analysis; assay type: ADME, Microsome
# [12] = Intrinsic clearance in human liver microsomes at 1 uM preincubated for 10 mins and measured up to 60 mins by LC-MS/MS analysis; assay type: ADME, Microsome; details: read-out: CLH
# [13] = Intrinsic clearance in mouse liver microsomes at 1 uM preincubated for 10 mins and measured up to 60 mins by LC-MS/MS analysis; assay type: ADME, Microsome; details: read-out: CLH
# [14] = Half-life in human liver microsomes at 1 uM preincubated for 10 mins and measured up to 60 mins by LC-MS/MS analysis; assay type: ADME, Microsome
# Aorta = test: Vasorelaxant activity in Sprague-Dawley rat aortic rings assessed as reduction in L-phenylephrine-induced contractions at 0.01 to 100 uM relative to control; assay type: functional; details: dose 0.01-100 µM
# Rattus norvegicus [15] = test: Anti-hyperalgesic activity in carrageenan-induced hyperalgesia male Sprague-Dawley rat model assessed as paw edema volume at 10 mg/kg, po measured 30 mins after compound administration by plethysmometer analysis; assay type: functional; details: 0.5 h
# Rattus norvegicus [16] = test: Anti-hyperalgesic activity in carrageenan-induced hyperalgesia male Sprague-Dawley rat model assessed as paw withdrawal threshold at 10 mg/kg, po measured 15 mins after compound administration by paw pressure test; assay type: functional; details: 0.25 h
# Rattus norvegicus [17] = test: Anti-hyperalgesic activity in carrageenan-induced hyperalgesia male Sprague-Dawley rat model assessed as paw withdrawal threshold at 10 mg/kg, po measured 60 mins after compound administration by paw pressure test; assay type: functional; details: 1 h
# Rattus norvegicus [18] = test: Anti-hyperalgesic activity in carrageenan-induced hyperalgesia male Sprague-Dawley rat model assessed as paw withdrawal threshold at 10 mg/kg, po measured 30 mins after compound administration by paw pressure test; assay type: functional; details: 0.5 h
# Rattus norvegicus [19] = test: Anti-hyperalgesic activity in carrageenan-induced hyperalgesia male Sprague-Dawley rat model assessed as paw withdrawal threshold at 10 mg/kg, po measured 45 mins after compound administration by paw pressure test; assay type: functional; details: 0.75 h
Compound,Activity (Rattus norvegicus [1]),Activity (Rattus norvegicus [2]),IC50 [3],Activity (Rattus norvegicus [4]),Ratio IC50 (J774),Activity (Rattus norvegicus [5]),Activity (Mus musculus [6]),IC50 [7],Activity (Mus musculus [8]),Activity (Rattus norvegicus [9]),Activity (Mus musculus [10]),Efficacy (Aorta),also measured
Cc1c(CCSCCO)cc(-c2ccc(S(C)(=O)=O)cc2)n1-c1ccc(F)c(F)c1,39.6 g,37.8 g,17 nM,2.09 mL,> 588,46.6 g,17.4,> 10000 nM,23.8,45.3 g,19.6,,
Cc1c(CC[S+]([O-])CCO)cc(-c2ccc(S(C)(=O)=O)cc2)n1-c1ccc(F)cc1 (centres undefined),,,916 nM,,> 11,,,> 10000 nM,,,,,half-life at 1 µM [11]: 142 min; microsomal CLint at 1 µM [12]: 3.2 µL/min/mg; microsomal CLint at 1 µM [13]: 9.7 µL/min/mg; half-life at 1 µM [14]: 470 min
Cc1c(CC[S+]([O-])CCO[N+](=O)[O-])cc(-c2ccc(S(C)(=O)=O)cc2)n1-c1ccc(F)cc1 (centres undefined),36.3 g,42.3 g,5 nM,2.25 mL,> 2000,47.2 g,18,> 10000 nM,29.2,46.1 g,21.8,,half-life at 1 µM [11]: 35.1 min; microsomal CLint at 1 µM [12]: 39.9 µL/min/mg; microsomal CLint at 1 µM [13]: 40.3 µL/min/mg; half-life at 1 µM [14]: 34.7 min
Cc1c(CC[S+]([O-])CCO)cc(-c2ccc(S(C)(=O)=O)cc2)n1-c1ccccc1 (centres undefined),,,320 nM,,> 31.2,,,> 10000 nM,,,,,
Cc1c(CCSCCO[N+](=O)[O-])cc(-c2ccc(S(C)(=O)=O)cc2)n1-c1ccc(F)cc1,37.5 g,39.9 g,9 nM,2.18 mL,> 1110,45.9 g,20.6,> 10000 nM,24.2,44.7 g,20.5,59%,half-life at 1 µM [11]: 22.8 min; microsomal CLint at 1 µM [12]: 132 µL/min/mg; microsomal CLint at 1 µM [13]: 61.2 µL/min/mg; half-life at 1 µM [14]: 10.5 min
Cc1ccc(-c2cc(C(F)(F)F)nn2-c2ccc(S(N)(=O)=O)cc2)cc1 [CELECOXIB],,,,,,,,,,,,,Activity (Rattus norvegicus [15]): 1.56 mL; Activity (Rattus norvegicus [16]): 48.5 g; Activity (Rattus norvegicus [17]): 46.7 g; Activity (Rattus norvegicus [18]): 51.3 g; Activity (Rattus norvegicus [19]): 54 g
Cc1c(CCSCCO)cc(-c2ccc(S(C)(=O)=O)cc2)n1-c1ccccc1,,,25 nM,,> 400,,,> 10000 nM,,,,,
Cc1c(CCSCCO[N+](=O)[O-])cc(-c2ccc(S(C)(=O)=O)cc2)n1-c1ccccc1,,,29 nM,,> 345,,,> 10000 nM,,,,59%,
Cc1c(CCOCCO[N+](=O)[O-])cc(-c2ccc(S(C)(=O)=O)cc2)n1-c1ccccc1,,,,,> 588,,,,,,,,
CCOc1ccc2ccc(=O)oc2c1,,,,,,,,,,,,,half-life at 1 µM [11]: 4.7 min; microsomal CLint at 1 µM [12]: 113 µL/min/mg; microsomal CLint at 1 µM [13]: 297 µL/min/mg; half-life at 1 µM [14]: 12.6 min
Cc1c(CC[S+]([O-])CCO)cc(-c2ccc(S(C)(=O)=O)cc2)n1-c1ccc(F)c(F)c1 (centres undefined),,,140 nM,,> 71.4,,,> 10000 nM,,,,,
Cc1c(CCOCCO[N+](=O)[O-])cc(-c2ccc(S(C)(=O)=O)cc2)n1-c1ccc(F)c(F)c1,,,,,> 10.9,,,,,,,,
Cc1c(CCOCCO)cc(-c2ccc(S(C)(=O)=O)cc2)n1-c1ccc(F)c(F)c1,,,,,> 23.8,,,,,,,,
Cc1c(CC[S+]([O-])CCO[N+](=O)[O-])cc(-c2ccc(S(C)(=O)=O)cc2)n1-c1ccc(F)c(F)c1 (centres undefined),38.3 g,39.8 g,3 nM,2.2 mL,> 3330,48.2 g,21.3,> 10000 nM,25.9,44.2 g,20.1,59%,
Cc1c(CCOCCO[N+](=O)[O-])cc(-c2ccc(S(C)(=O)=O)cc2)n1-c1ccc(F)cc1,,,,,> 714,,,,,,,59%,
Cc1c(CCSCCO)cc(-c2ccc(S(C)(=O)=O)cc2)n1-c1ccc(F)cc1,38.2 g,41.5 g,8 nM,2.22 mL,> 1250,48.2 g,21.5,> 10000 nM,26.5,48.7 g,23.1,,half-life at 1 µM [11]: 19.2 min; microsomal CLint at 1 µM [12]: 39.2 µL/min/mg; microsomal CLint at 1 µM [13]: 73.2 µL/min/mg; half-life at 1 µM [14]: 36.2 min
Cc1c(CC[S+]([O-])CCO[N+](=O)[O-])cc(-c2ccc(S(C)(=O)=O)cc2)n1-c1ccccc1 (centres undefined),,,74 nM,,> 135,,,> 10000 nM,,,,59%,
Cc1c(CCSCCO[N+](=O)[O-])cc(-c2ccc(S(C)(=O)=O)cc2)n1-c1ccc(F)c(F)c1,37.1 g,40.6 g,16 nM,2.31 mL,> 625,46.1 g,20.7,> 10000 nM,22.5,45.7 g,19,59%,
